Mortality and pest or weed control data for 18 compounds are collected here from patent US12583851B2, “Heteroaryl-substituted pyrazine derivatives as pesticides” (Elanco Animal Health GmbH, priority 2019, dated 2026).

Holding throughout (assay type): in vivo
Assay [1] deals with fall armyworm larvae (Spodoptera frugiperda). As to the kind of experiment: Spodoptera frugiperda spray test. The following applies: 168 h, maize leaf sections, after 7 days. As for the experimental part: Spodoptera fruaiperda—Spray Test
Solvent: 78.0 parts by weight acetone • 1.5 parts by weight dimethylformamide
(§1) Emulsifier: alkylarylpolyglycol ether
To produce a suitable preparation of active compound, 1 part by weight of active compound is mixed with the stated amount of solvents and is diluted with water, containing an emulsifier concentration of 1000 ppm, to the desired concentration. Further test concentrations are prepared by dilution with emulsifier containing water.
Maize (Zea mays) leaf sections are sprayed with a preparation of the active ingredient of the desired concentration. Once dry, the leaf sections are infested with fall armyworm larvae (Spodoptera frugiperda).
After 7 days mortality in % is determined. 100% means all caterpillars have been killed and 0% means none of the caterpillars have been killed.

Assay [2] has as its system larvae of the banded cucumber beetle (Diabrotica balteata). Nature of the assay: Diabrotica balteata spray test. The following applies: 168 h, after 7 days, read-out: efficacy (seedling growth); for pest or weed control at 32 µg/disc, 100 g/ha: 100 g/ha (=32 μg/well). As to the method:
Diabrotica balteata—Spray Test
Solvent: 78.0 parts by weight of acetone • • 1.5 parts by weight of dimethylformamide
as §1
To produce a suitable preparation of active compound, 1 part by weight of active compound is mixed with the stated amount of solvent, and the concentrate is diluted with water, containing an emulsifier concentration of 1000 ppm, to the desired concentration. Further test concentrations are prepared by dilution with emulsifier containing water.
Soaked wheat seeds (Triticum aestivum) are placed in a multiple well plate filled with agar and some water and are incubated for 1 day to germinate (5 seeds per well). The germinated wheat seeds are sprayed with a test solution containing the desired concentration of the active ingredient. Afterwards each unit is infected with 10-20 larvae of the banded cucumber beetle (Diabrotica balteata).
After 7 days efficacy in % is determined. 100% means all the seedlings have grown up like in the untreated, uninfected control; 0% means none of the seedlings have grown.

The test system of assay [3] is Rhipicephalus (Boophilus) microplus larvae (strain Parkhurst, resistant against synthetic pyrethroids). Nature of the assay: Rhipicephalus (Boophilus) microplus in-vitro contact test, larval cattle tick. The following applies: after 48 hours, read-out: efficacy (larvae dead or moribund); for pest or weed control at 1 µg/cm2, 100 g/ha: 1 μg/cm^2 (=100 g/ha); for pest or weed control at 5 µg/cm2, 500 g/ha: 5 μg/cm^2 (=500 g/ha). As for the experimental part: Rhipicephalus (Boophilus) microplus—In-Vitro Contact Tests Larval Cattle Tick (Strain Parkhurst, Resistant Against Synthetic Pyrethroids)
9 mg compound is solved in 1 mL acetone and diluted with acetone to the desired concentration. […] the test solution is filled in 25 mL glass test tubes and homogeneously distributed on the inner walls by rotation and tilting on a shaking device (2 h at 30 rpm). With a compound concentration of 900 ppm, an inner surface of 44.7 cm^2 and a homogeneous distribution, a dose of 5 μg/cm^2 is achieved.
After the solvent has evaporated, each test tube is filled with 20-50 cattle tick larvae (Rhipicephalus microplus), closed with a perforated lid and incubated in a horizontal position at 85% relative humidity and 27° C. in an incubator. After 48 hours efficacy is determined. The larvae are patted on the ground of the tubes and negative geotactic behaviour is recorded.
An efficacy of 100% means all larvae are dead or moribund; 0% means no larvae are dead or moribund.

`CC(NC(=O)c1cc(C(F)(F)F)cc(C(F)(F)F)c1)c1nccnc1-c1ccc(C(F)(F)F)cn1` (racemic) [Example I-45, (rac)-3,5-Bis(trifluoromethyl)-N-[1-{3-[5-(trifluoromethyl)pyridin-2-yl]pyrazin-2-yl}ethyl]benzamide]: the mortality (as a rule, the share of the test organisms that died) at 100 g/ha in assay [1] is 100%. `CC(NC(=O)c1cc(OC(F)F)cc(C2CC2)c1)c1nccnc1-c1ncc(C(=O)N(C)CC#N)s1` (racemic) [Example I-142, (rac)-N-(Cyanomethyl)-2-(3-{1-[3-cyclopropyl-5-(difluoromethoxy)benzamido]ethyl}pyrazin-2-yl)-N-methyl-1,3-thiazole-5-carboxamide]: in assay [2], the pest or weed control at 32 µg/disc, 100 g/ha worked out at 100%. This compound also returned a mortality at 100 g/ha in assay [1] of 100%. Consider `CC(NC(=O)c1cc(C(F)(F)F)cc(C(F)(F)F)c1)c1nccnc1-c1ccc(C(=O)N(C)CC#N)cn1` (racemic) [Example I-39, (rac)-6-(3-{1-[3,5-Bis(trifluoromethyl)benzamido]ethyl}pyrazin-2-yl)-N-(cyanomethyl)-N-methylpyridine-3-carboxamide], for which the pest or weed control at 32 µg/disc, 100 g/ha in assay [2] is 100%. This compound also showed a mortality at 100 g/ha in assay [1] of 100%. As to `CC(NC(=O)c1cc(Cl)cc(OC(F)(F)F)c1)c1nccnc1-c1ncc(C(=O)N2CCOCC2)s1` (racemic) [Example I-60, (rac)-3-Chloro-N-[1-{3-[5-(morpholine-4-carbonyl)-1,3-thiazol-2-yl]pyrazin-2-yl}ethyl]-5-(trifluoromethoxy)benzamide], the mortality at 100 g/ha in assay [1] is 83%. Consider `CC(NC(=O)c1cc(Cl)cc(S(=O)(=O)c2ccc(F)cc2)c1)c1nccnc1-n1cc(C#N)cn1` (racemic) [Example I-128, (rac)-3-Chloro-N-{1-[3-(4-cyano-1H-pyrazol-1-yl)pyrazin-2-yl]ethyl}-5-(4-fluorobenzene-1-sulfonyl)benzamide], for which, in assay [3], the pest or weed control at 1 µg/cm2, 100 g/ha was 90% and the pest or weed control at 5 µg/cm2, 500 g/ha was 80%. The compound also showed a mortality at 100 g/ha in assay [1] of 100%. `CC(NC(=O)c1cc(C(F)(F)F)cc(C(F)(F)F)c1)c1nccnc1-c1ncc(C(=O)N2CCOCC2)s1` (racemic) [Example I-58, (rac)-N-[1-{3-[5-(Morpholine-4-carbonyl)-1,3-thiazol-2-yl]pyrazin-2-yl}ethyl]-3,5-bis(trifluoromethyl)benzamide]: in assay [3], the pest or weed control at 1 µg/cm2, 100 g/ha was 100% and the pest or weed control at 5 µg/cm2, 500 g/ha was 90%. In assay [1], this compound returned a mortality at 100 g/ha of 100%. For the compound `CC(NC(=O)c1cc(Br)cc(Br)c1)c1nccnc1-n1cc(C#N)cn1` (racemic) [Example I-106, (rac)-3,5-Dibromo-N-{1-[3-(4-cyano-1H-pyrazol-1-yl)pyrazin-2-yl]ethyl}benzamide], the pest or weed control at 6.4 µg/disc, 20 g/ha in assay [2] (20 g/ha (=6.4 μg/well)) worked out at 100%. For the same compound, in assay [2], the pest or weed control at 32 µg/disc, 100 g/ha was determined as 100%. In assay [1], this compound came in with a mortality at 100 g/ha of 100%. In turn, `CCN(C)C(=O)c1cnc(-c2ncc(C)nc2C(C)NC(=O)c2cc(C(F)(F)F)nc(C(F)(F)F)c2)s1` (racemic) [Example I-151, (rac)-N-[1-(3-{5-[Ethyl(methyl)carbamoyl]-1,3-thiazol-2-yl)-6-methylpyrazin-2-yl)ethyl]-2,6-bis(trifluoromethyl)pyridine-4-carboxamide] showed a mortality at 100 g/ha in assay [1] of 100%. As for `CCS(=O)(=O)c1cc(Cl)cc(C(=O)NC(C)c2nccnc2-n2cc(C#N)cn2)c1` (racemic) [Example I-122, (rac)-3-Chloro-N-{1-[3-(4-cyano-1-pyrazol-1-yl)pyrazin-2-yl]ethyl}-5-(ethanesulfonyl)benzamide], the pest or weed control at 1 µg/cm2, 100 g/ha in assay [3] was 90%. The mortality at 100 g/ha in assay [1] was 100%. In the case of `CC(NC(=O)c1cc(Cl)cc(S(=O)(=O)C2CC2)c1)c1nccnc1-n1cc(C#N)cn1` (racemic) [Example I-101, (rac)-3-Chloro-N-{1-[3-(4-cyano-1H-pyrazol-1-yl)pyrazin-2-yl]ethyl}-5-(cyclopropanesulfonyl)benzamide], the mortality at 100 g/ha in assay [1] worked out at 100%. Consider `CC(NC(=O)c1cc(C(F)(F)F)cc(C(F)(F)F)c1)c1nccnc1-n1cc(C(=O)N(C)C(C)C)cn1` (racemic) [Example I-136, (rac)-1-(3-{1-[3,5-Bis(trifluoromethyl)benzamido]ethyl}pyrazin-2-yl)-N-methyl-N-(propan-2-yl)-1H-pyrazole-4-carboxamide], for which, in assay [3], the pest or weed control at 1 µg/cm2, 100 g/ha was 100% and the pest or weed control at 5 µg/cm2, 500 g/ha is 100%. The compound further yielded a mortality at 100 g/ha in assay [1] of 100%. `Cc1cnc(-c2ncc(C(=O)N(C)CC3CC3)s2)c(C(C)NC(=O)c2cc(C(F)(F)F)cc(C(F)(F)F)c2)n1` (racemic) [Example I-73, (rac)-2-(3-{1-[3,5-Bis(trifluoromethyl)benzamido]ethyl}-5-methylpyrazin-2-yl)-N-(cyclopropylmethyl)-N-methyl-1,3-thiazole-5-carboxamide] came in with a mortality at 100 g/ha in assay [1] of 100%.

As for `CC(NC(=O)c1cc(Br)cc(OC(F)(F)F)c1)c1nccnc1-n1cc(C(=O)N(C)C(C)C)cn1` (racemic) [Example I-137, (rac)-1-(3-{1-[3-Bromo-5-(trifluoromethoxy)benzamido]ethyl}pyrazin-2-yl)-N-methyl-N-(propan-2-yl)-1H-pyrazole-4-carboxamide], in assay [3], the pest or weed control at 1 µg/cm2, 100 g/ha was 100% and the pest or weed control at 5 µg/cm2, 500 g/ha is 100%. This compound showed a mortality at 100 g/ha in assay [1] of 100%. With `CCN(C)C(=O)c1cnc(-c2ncc(C)nc2[C@H](C)NC(=O)c2cc(C(F)(F)F)nc(C(F)(F)F)c2)s1` [Example I-159, (+)-N-[(1S)-1-(3-(5-[ethyl(methyl)carbamoyl]-1,3-thiazol-2-yl)-6-methylpyrazin-2-yl)ethyl]-2,6-bis(trifluoromethyl)pyridine-4-carboxamide], in assay [1], the mortality at 100 g/ha was determined as 100%. `Cc1cnc(C(C)NC(=O)c2cc(C(F)(F)F)cc(C(F)(F)F)c2)c(-c2ncc(C(=O)N(C)CC3CC3)s2)n1` (racemic) [Example I-125, (rac)-2-(3-{1-[3,5-Bis(trifluoromethyl)benzamido]ethyl}-6-methylpyrazin-2-yl)-N-(cyclopropylmethyl)-N-methyl-1,3-thiazole-5-carboxamide]: in assay [3], the pest or weed control at 1 µg/cm2, 100 g/ha was determined as 100% and the pest or weed control at 5 µg/cm2, 500 g/ha was 100%. The mortality at 100 g/ha in assay [1] is 100%. In assay [1], `CC(NC(=O)c1cc(Cl)cc(OC(F)(F)F)c1)c1nccnc1-c1ccc(C(F)(F)F)cn1` (racemic) [Example I-47, (rac)-3-Chloro-5-(trifluoromethoxy)-N-[1-{3-[5-(trifluoromethyl)pyridin-2-yl]pyrazin-2-yl}ethyl]benzamide] had a mortality at 100 g/ha of 100%.

On to `CCN(C)C(=O)c1cnc(-c2ncc(C)nc2C(C)NC(=O)c2cc(C(F)(F)F)cc(C(F)(F)F)c2)s1` (racemic) [Example I-148, (rac)-2-(3-{1-[3,5-Bis(trifluoromethyl)benzamido]ethyl}-5-methylpyrazin-2-yl)-N-ethyl-N-methyl-1,3-thiazole-5-carboxamide], for which the mortality at 100 g/ha in assay [1] was 100%. Consider `CCN(C)C(=O)c1cnc(-c2nc(C)cnc2C(C)NC(=O)c2cc(C(F)(F)F)cc(C(F)(F)F)c2)s1` (stereo in doubt) [Example I-157, (+)-2-(3-{(1S)-1-[3,5-bis(trifluoromethyl)benzamido]ethyl}-6-methylpyrazin-2-yl)-N-ethyl-N-methyl-1,3-thiazole-5-carboxamide], for which, in assay [1], the mortality at 100 g/ha was 100%.
